Read-outs that look alike come from different tables or passages of the source.
Assay: Ascending multiple dose pharmacokinetics of enteric coated capsules in healthy subjects
Type: in vivo, human
Conditions: human, plasma, po, healthy subjects
Procedure: Ascending multiple doses of 25, 50, 75, 100, 150, and 250 mg Compound A.HCl were administered as twice-daily regimen (q12h) for 14 days in cohorts of 8 healthy subjects (6 active and 2 placebo). Blood samples for Compound A.HCl analysis were obtained on days 1 and 14 within 2 hours of test article administration and at various time points from 0.5 to 48 hours after test article administration. Doses were administered orally after an overnight fast of at least 10 hours on these 2 days. Trough PK samples were collected on days 7, 10, and 12 to assess whether steady-state had been reached.
A total of 48 subjects contributed pharmacokinetic data for this analysis. […] FIGS. 4A and 4B show the relationship between Cmax vs. dose and AUC vs. dose, respectively.

Cl.c1cc2c3c(c1)[C@H]1CCC[C@H]1CN3CCNC2 [Compound A.HCl, (9aR,12aS)-4,5,6,7,9,9a,10,11,12,12a-decahydrocyclopenta[c][1,4]diazepino[6,7,1-ij]quinoline hydrochloride] gave a half-life (75 mg, single oral dose 75 mg, day 1, read-out: t1/2 (Mean) (converted)) of 8.22 h, an AUC(0-t) (100 mg, multiple oral doses (q12 h) 100 mg, day 14, read-out: AUCss (AUC0-12) (Geom. Mean)) of 49.2 ng·h/mL and an AUC(0-t) (100 mg, multiple oral doses (q12 h) 100 mg, day 14, read-out: AUCss (AUC0-12) (Mean)) of roughly 62.8 ng·h/mL. The Cmax (100 mg, multiple oral doses (q12 h) 100 mg, day 14, read-out: Cmax (Geom. Mean)) was 6.45 ng/mL, the Cmax (100 mg, multiple oral doses (q12 h) 100 mg, day 14, read-out: Cmax (Mean)) was 7.81 ng/mL and the Tmax (100 mg, multiple oral doses (q12 h) 100 mg, day 14, read-out: Tmax (Geom. Mean)) was 5.3 h. It also gave a Tmax (100 mg, multiple oral doses (q12 h) 100 mg, day 14, read-out: Tmax (Mean)) of 5.5 h, a half-life (100 mg, multiple oral doses (q12 h) 100 mg, day 14, read-out: t1/2 (Geom. Mean) (converted)) of 7.72 h and a half-life (100 mg, multiple oral doses (q12 h) 100 mg, day 14, read-out: t1/2 (Mean) (converted)) of 7.86 h. It also gave an AUC(0-inf) (100 mg, single oral dose 100 mg, day 1, read-out: AUC0-∞ (Geom. Mean)) of 47.2 ng·h/mL, an AUC(0-inf) (100 mg, single oral dose 100 mg, day 1, read-out: AUC0-∞ (Mean)) of 55.5 ng·h/mL and a Cmax (100 mg, single oral dose 100 mg, day 1, read-out: Cmax (Geom. Mean)) of 3.64 ng/mL. It also gave a Cmax (100 mg, single oral dose 100 mg, day 1, read-out: Cmax (Mean)) of 4.38 ng/mL, a Tmax (100 mg, single oral dose 100 mg, day 1, read-out: Tmax (Geom. Mean)) of 5.3 h and a Tmax (100 mg, single oral dose 100 mg, day 1, read-out: Tmax (Mean)) of 5.5 h. The half-life (100 mg, single oral dose 100 mg, day 1, read-out: t1/2 (Geom. Mean) (converted)) was 9.31 h, the half-life (100 mg, single oral dose 100 mg, day 1, read-out: t1/2 (Mean) (converted)) was 9.9 h and the AUC(0-t) (150 mg, multiple oral doses (q12 h) 150 mg, day 14, read-out: AUCss (AUC0-12) (Geom. Mean)) was 90.7 ng·h/mL. It also gave an AUC(0-t) (150 mg, multiple oral doses (q12 h) 150 mg, day 14, read-out: AUCss (AUC0-12) (Mean)) of roughly 110 ng·h/mL, a Cmax (150 mg, multiple oral doses (q12 h) 150 mg, day 14, read-out: Cmax (Geom. Mean)) of 10.7 ng/mL and a Cmax (150 mg, multiple oral doses (q12 h) 150 mg, day 14, read-out: Cmax (Mean)) of 13.1 ng/mL. The Tmax (150 mg, multiple oral doses (q12 h) 150 mg, day 14, read-out: Tmax (Geom. Mean)) was 5 h, the Tmax (150 mg, multiple oral doses (q12 h) 150 mg, day 14, read-out: Tmax (Mean)) was 5.2 h and the half-life (150 mg, multiple oral doses (q12 h) 150 mg, day 14, read-out: t1/2 (Geom. Mean) (converted)) was 7 h. It also gave a half-life (150 mg, multiple oral doses (q12 h) 150 mg, day 14, read-out: t1/2 (Mean) (converted)) of 7.04 h, an AUC(0-inf) (150 mg, single oral dose 150 mg, day 1, read-out: AUC0-∞ (Geom. Mean)) of 55.3 ng·h/mL and an AUC(0-inf) (150 mg, single oral dose 150 mg, day 1, read-out: AUC0-∞ (Mean)) of 70.2 ng·h/mL. It also gave a Cmax (150 mg, single oral dose 150 mg, day 1, read-out: Cmax (Geom. Mean)) of 3.67 ng/mL, a Cmax (150 mg, single oral dose 150 mg, day 1, read-out: Cmax (Mean)) of 5.05 ng/mL and a Tmax (150 mg, single oral dose 150 mg, day 1, read-out: Tmax (Geom. Mean)) of 5.6 h. For the same molecule, the Tmax (150 mg, single oral dose 150 mg, day 1, read-out: Tmax (Mean)) was 5.7 h, the half-life (150 mg, single oral dose 150 mg, day 1, read-out: t1/2 (Geom. Mean) (converted)) was 9 h and the half-life (150 mg, single oral dose 150 mg, day 1, read-out: t1/2 (Mean) (converted)) was 9.08 h. It also gave an AUC(0-t) (250 mg, multiple oral doses (q12 h) 250 mg, day 14, read-out: AUCss (AUC0-12) (Geom. Mean)) of 218 ng·h/mL, an AUC(0-t) (250 mg, multiple oral doses (q12 h) 250 mg, day 14, read-out: AUCss (AUC0-12) (Mean)) of roughly 235 ng·h/mL and a Cmax (250 mg, multiple oral doses (q12 h) 250 mg, day 14, read-out: Cmax (Geom. Mean)) of 25.6 ng/mL. For the same molecule, the Cmax (250 mg, multiple oral doses (q12 h) 250 mg, day 14, read-out: Cmax (Mean)) was 26.8 ng/mL, the Tmax (250 mg, multiple oral doses (q12 h) 250 mg, day 14, read-out: Tmax (Geom. Mean)) was 5.9 h and the Tmax (250 mg, multiple oral doses (q12 h) 250 mg, day 14, read-out: Tmax (Mean)) was 6.2 h. For the same molecule, the half-life (250 mg, multiple oral doses (q12 h) 250 mg, day 14, read-out: t1/2 (Geom. Mean) (converted)) was 6.99 h, the half-life (250 mg, multiple oral doses (q12 h) 250 mg, day 14, read-out: t1/2 (Mean) (converted)) was 7.12 h and the AUC(0-inf) (250 mg, single oral dose 250 mg, day 1, read-out: AUC0-∞ (Geom. Mean)) was 84.7 ng·h/mL. The AUC(0-inf) (250 mg, single oral dose 250 mg, day 1, read-out: AUC0-∞ (Mean)) was 95.5 ng·h/mL, the Cmax (250 mg, single oral dose 250 mg, day 1, read-out: Cmax (Geom. Mean)) was 5.91 ng/mL and the Cmax (250 mg, single oral dose 250 mg, day 1, read-out: Cmax (Mean)) was 6.27 ng/mL. It also gave a Tmax (250 mg, single oral dose 250 mg, day 1, read-out: Tmax (Geom. Mean)) of 5.9 h, a Tmax (250 mg, single oral dose 250 mg, day 1, read-out: Tmax (Mean)) of 6 h and a half-life (250 mg, single oral dose 250 mg, day 1, read-out: t1/2 (Geom. Mean) (converted)) of 9.91 h. It also gave a half-life (250 mg, single oral dose 250 mg, day 1, read-out: t1/2 (Mean) (converted)) of 10.4 h.
